Test results published in patent US20150126467A1, “USE OF ALGINATE OLIGOMERS TO ENHANCE THE EFFECTS OF ANTIFUNGAL AGENTS” (AlgiIPharma AS, priority 2011, published 2015).
Values after ≈ are worked out from the molar mass of the structure shown. Where two headings read alike, the source gives them in different places.

Assays:
Format in all cases: cell-based
[1] = test system: Cryptococcus neoformans CCUG 23451; assay: Robotic MIC assay, Cryptococcus neoformans (Example 6); settings: for MIC: Cryptococcus neoformans, read-out: Minimum Inhibitory Concentration (MIC); for effect on MIC when OligoG is added to the medium: media: RPMI with 2% glucose
Experimental: Cryptococcus sp. was grown at 30° C. for 96 h on YM-agar. Spores and aerial mycelium was cut out from the agar, suspended in 1 ml YM-broth and dispersed with glass beads (1 mm) in a mini bead beater for 2 min. The suspension was added glycerol to 10% and frozen at −80° C. Each batch of frozen stock culture was then characterized in separate growth experiments using Mueller-Hinton and RPMI to determine the minimum amount of inoculum giving satisfactory growth after 48 h under the conditions relevant for the MIC assay. This inoculum procedure is used in order to reduce day to day variation in bioassays.
Robotic minimum inhibitory concentration (MIC) assay was performed as follows. OligoG CF-5/20 was dissolved in medium (Mueller-Hinton, RPMI with 2% glucose, Sabouraud or YM) to 1.25 times of the desired assay concentrations (2, 6 and 10%). […].
(§1) Two-fold serial dilutions of antifungal agents were made in medium with different concentrations of OligoG CF-5/20, and the solutions were placed in four parallel wells in Nunc 384-well micro plates (30 μl per well in Nunc 242757 microplates). A group of 8 wells with no addition of antifungal agents for each OligoG CF-5/20 concentration was included on each micro plate as growth reference. Each well in the 384-well assay plates was added 7.5 μl of the medium innoculated with frozen stock culture of the relevant strains.
The microplates were placed in plastic bags and incubated without shaking at 34° C. The optical density at 600 nm in the microwells was measured after certain time points from 24 h to 96 h of incubation. […]

[2] = test system: Aspergillus niger CCUG 18919; assay: Robotic MIC assay, Aspergillus (Example 4); settings: Aspergillus niger, CCUG18919, 48 h, Mueller-Hinton broth, read-out: Minimum Inhibitory Concentration (MIC)
Experimental: (§2) Aspergillus sp. was grown at 30° C. for 96 h on YM-agar. Spores and aerial mycelium was cut out from the agar, suspended in 1 ml YM-broth and dispersed with glass beads (1 mm) in a mini bead beater for 2 min. Glycerol was added to the suspension to 10% and frozen at −80° C.
(§3) Each batch of frozen stock culture was then characterized in separate growth experiments using Mueller-Hinton broth to determine the minimum amount of inoculum giving satisfactory growth after 48 h under the conditions relevant for the MIC assay. This inoculation procedure is used in order to reduce day to day variation in bioassays.
(§4) Robotic minimum inhibitory concentration (MIC) assay was performed as follows. OligoG CF-5/20 was dissolved in medium (Mueller-Hinton broth) to 1.25 times of the desired assay concentrations (2, 6 and 10%). […].
as §1, with “of the MH medium inoculated” for “of the medium innoculated”, “MH medium inoculated with frozen” for “the medium innoculated with frozen”
(§5) The microplates were placed in plastic bags and incubated without shaking at 34° C. The optical density at 600 nm in the microwells was measured after approximately 24 and 48 hours of incubation. […]

[3] = test system: Aspergillus flavus CCUG 28296; assay: Robotic MIC assay, Aspergillus (Example 4); settings: Aspergillus flavus, CCUG23451 / CCUG28296, 48 h, Mueller-Hinton broth, read-out: Minimum Inhibitory Concentration (MIC)
Experimental: as §2, §3, §4
as §1, with “of the MH medium inoculated” for “of the medium innoculated”, “MH medium inoculated with frozen” for “the medium innoculated with frozen”
as §5

[4] = test system: Aspergillus fumigatus CCUG 17460; assay: Robotic MIC assay, Aspergillus (Example 4); settings: Aspergillus fumigatus, CCUG17460, 48 h, Mueller-Hinton broth, read-out: Minimum Inhibitory Concentration (MIC)
Experimental: as §2, §3, §4
as §1, with “of the MH medium inoculated” for “of the medium innoculated”, “MH medium inoculated with frozen” for “the medium innoculated with frozen”
as §5

[5] = CCUG23451, 72 h, RPMI 2% GLU, 0% OligoG, 72 hours
[6] = CCUG23451, 72 h, RPMI 2% GLU, 2% OligoG, 72 hours
[7] = CCUG23451, 72 h, RPMI 2% GLU, 6% OligoG, 72 hours
[8] = CCUG23451, 72 h, Sabouraud, 0% OligoG, 72 hours
[9] = CCUG23451, 72 h, Sabouraud, 2% OligoG, 72 hours
[10] = CCUG23451, 72 h, Sabouraud, 6% OligoG, 72 hours
[11] = CCUG23451, 72 h, YM, 0% OligoG, 72 hours
[12] = CCUG23451, 72 h, YM, 2% OligoG, 72 hours
[13] = CCUG23451, 96 h, MH, 0% OligoG, 96 hours
[14] = CCUG23451, 96 h, MH, 2% OligoG, 96 hours
[15] = CCUG23451, 96 h, RPMI 2% GLU, 0% OligoG, 96 hours
[16] = CCUG23451, 96 h, RPMI 2% GLU, 2% OligoG, 96 hours
[17] = CCUG23451, 96 h, RPMI 2% GLU, 6% OligoG, 96 hours
[18] = CCUG23451, 96 h, RPMI 2% GLU, 10% OligoG, 96 hours
[19] = CCUG23451, 96 h, Sabouraud, 0% OligoG, 96 hours
[20] = CCUG23451, 96 h, Sabouraud, 2% OligoG, 96 hours
[21] = CCUG23451, 96 h, Sabouraud, 6% OligoG, 96 hours
[22] = CCUG23451, 96 h, YM, 0% OligoG, 96 hours
[23] = CCUG23451, 96 h, YM, 2% OligoG, 96 hours
[24] = A. niger CCUG 18919, 10% OligoG
[25] = A. flavus CCUG 23451, 0% OligoG
[26] = A. flavus CCUG 23451, 2% OligoG
[27] = A. flavus CCUG 23451, 6% OligoG
[28] = A. flavus CCUG 23451, 10% OligoG
[29] = A. fumigatus CCUG 17460, 0% OligoG
[30] = A. fumigatus CCUG 17460, 2% OligoG
[31] = A. fumigatus CCUG 17460, 6% OligoG
[32] = A. fumigatus CCUG 17460, 10% OligoG

SMILES	MIC [1, 5] [µg/mL]	MIC [1, 6] [µg/mL]	MIC [1, 7] [µg/mL]	MIC [1, 8] [µg/mL]	MIC [1, 9] [µg/mL]	MIC [1, 10] [µg/mL]	MIC [1, 11] [µg/mL]	MIC [1, 12] [µg/mL]	MIC ([2]; A. niger CCUG 18919, 0% OligoG) [µg/mL]	MIC ([2]; A. niger CCUG 18919, 2% OligoG) [µg/mL]	MIC ([2]; A. niger CCUG 18919, 6% OligoG) [µg/mL]	MIC [2, 24] [µg/mL]	MIC [3, 25] [µg/mL]	MIC [3, 26] [µg/mL]	MIC [3, 27] [µg/mL]	MIC [3, 28] [µg/mL]	MIC [4, 29] [µg/mL]	MIC [4, 30] [µg/mL]	MIC [4, 31] [µg/mL]	MIC [4, 32] [µg/mL]	further results
C[C@@H]1[C@H](O)[C@@H](C)/C=C/C=C/C=C/C=C/C=C/C=C/C=C/[C@H](O[C@@H]2O[C@H](C)[C@@H](O)[C@H](N)[C@@H]2O)C[C@@H]2O[C@](O)(C[C@@H](O)C[C@@H](O)[C@H](O)CC[C@@H](O)C[C@@H](O)CC(=O)O[C@H]1C)C[C@H](O)[C@H]2C(=O)O [Amphotericin B, amphotericin B]	> 1.5	1.5 (≈ 1.62 µM)	0.75 (≈ 0.812 µM)	0.188 (≈ 0.203 µM)	0.0938 (≈ 0.101 µM)	0.0117 (≈ 0.0127 µM)	> 1.5	1.5 (≈ 1.62 µM)	0.188 (≈ 0.203 µM)	0.188 (≈ 0.203 µM)	0.0938 (≈ 0.101 µM)	0.0469 (≈ 0.0507 µM)	0.75 (≈ 0.812 µM)	0.375 (≈ 0.406 µM)	0.375 (≈ 0.406 µM)	0.188 (≈ 0.203 µM)	0.75 (≈ 0.812 µM)	0.375 (≈ 0.406 µM)	0.375 (≈ 0.406 µM)	0.188 (≈ 0.203 µM)	MIC [1, 13]: 1.5 µg/mL (≈ 1.62 µM); MIC [1, 14]: 0.188 µg/mL (≈ 0.203 µM); MIC [1, 15]: > 1.5 µg/mL; MIC [1, 16]: > 1.5 µg/mL; MIC [1, 17]: 1.5 µg/mL (≈ 1.62 µM); MIC [1, 18]: 0.75 µg/mL (≈ 0.812 µM); MIC [1, 19]: 0.375 µg/mL (≈ 0.406 µM); MIC [1, 20]: 0.0938 µg/mL (≈ 0.101 µM); MIC [1, 21]: 0.0234 µg/mL (≈ 0.0253 µM); MIC [1, 22]: > 1.5 µg/mL; MIC [1, 23]: 1.5 µg/mL (≈ 1.62 µM); effect on MIC when OligoG is added to the medium ([1]; MH, Sabouraud, YM): reduction in MIC in all media tested
OC(Cn1cncn1)(Cn1cncn1)c1ccc(F)cc1F [Fluconazole, fluconazole]	2 (≈ 6.53 µM)	1 (≈ 3.27 µM)	0.5 (≈ 1.63 µM)	1 (≈ 3.27 µM)	0.5 (≈ 1.63 µM)	0.5 (≈ 1.63 µM)	1 (≈ 3.27 µM)	0.5 (≈ 1.63 µM)	> 128	> 128	> 128	128 (≈ 418 µM)	64 (≈ 209 µM)	64 (≈ 209 µM)	32 (≈ 104 µM)	32 (≈ 104 µM)	> 128	> 128	128 (≈ 418 µM)	128 (≈ 418 µM)	MIC [1, 13]: 2 µg/mL (≈ 6.53 µM); MIC [1, 14]: 0.5 µg/mL (≈ 1.63 µM); MIC [1, 15]: 2 µg/mL (≈ 6.53 µM); MIC [1, 16]: 1 µg/mL (≈ 3.27 µM); MIC [1, 17]: 1 µg/mL (≈ 3.27 µM); MIC [1, 18]: 1 µg/mL (≈ 3.27 µM); MIC [1, 19]: 1 µg/mL (≈ 3.27 µM); MIC [1, 20]: 0.5 µg/mL (≈ 1.63 µM); MIC [1, 21]: 0.5 µg/mL (≈ 1.63 µM); MIC [1, 22]: 1 µg/mL (≈ 3.27 µM); MIC [1, 23]: 1 µg/mL (≈ 3.27 µM); effect on MIC when OligoG is added to the medium ([1]; MH, Sabouraud, YM): reduction in MIC in all media tested
Clc1ccc(COC(Cn2ccnc2)c2ccc(Cl)cc2Cl)c(Cl)c1 (centres unmarked) [Miconazole, miconazole]	4 (≈ 9.61 µM)	2 (≈ 4.81 µM)	0.5 (≈ 1.2 µM)	< 0.0156	0.0625 (≈ 0.15 µM)	0.00781 (≈ 0.0188 µM)	0.5 (≈ 1.2 µM)	0.5 (≈ 1.2 µM)	1 (≈ 2.4 µM)	0.5 (≈ 1.2 µM)	0.25 (≈ 0.601 µM)	0.25 (≈ 0.601 µM)	1 (≈ 2.4 µM)	0.25 (≈ 0.601 µM)	0.25 (≈ 0.601 µM)	0.25 (≈ 0.601 µM)	4 (≈ 9.61 µM)	2 (≈ 4.81 µM)	2 (≈ 4.81 µM)	2 (≈ 4.81 µM)	MIC [1, 13]: 1 µg/mL (≈ 2.4 µM); MIC [1, 14]: 0.125 µg/mL (≈ 0.3 µM); MIC [1, 15]: 4 µg/mL (≈ 9.61 µM); MIC [1, 16]: 2 µg/mL (≈ 4.81 µM); MIC [1, 17]: 1 µg/mL (≈ 2.4 µM); MIC [1, 19]: 0.0625 µg/mL (≈ 0.15 µM); MIC [1, 20]: 0.25 µg/mL (≈ 0.601 µM); MIC [1, 21]: 0.5 µg/mL (≈ 1.2 µM); MIC [1, 22]: 0.5 µg/mL (≈ 1.2 µM); MIC [1, 23]: 1 µg/mL (≈ 2.4 µM); effect on MIC when OligoG is added to the medium ([1]; MH, Sabouraud, YM): reduction in MIC in RPMI with glucose and in MH medium
CN(C/C=C/C#CC(C)(C)C)Cc1cccc2ccccc12 [Terbinafine, terbinafine]									0.5 (≈ 1.72 µM)	0.25 (≈ 0.858 µM)	0.0625 (≈ 0.214 µM)	0.125 (≈ 0.429 µM)	0.125 (≈ 0.429 µM)	0.0625 (≈ 0.214 µM)	< 0.0312	< 0.0312	4 (≈ 13.7 µM)	4 (≈ 13.7 µM)	4 (≈ 13.7 µM)	2 (≈ 6.86 µM)	
